The record followed here is ChEMBL document CHEMBL3044786, “Synthesis and nematocidal activity of ascaridole derivatives against Meloidogyne incognita and Aphelenchoides besseyi” (J Pestic Sci, 2007).

Values after ≈ are worked out from the molar mass of the structure shown. Some results are limits rather than exact numbers.

Series [1] deals with Meloidogyne incognita. Briefly: Nematocidal activity against Meloidogyne incognita (root-knot nematode) assessed as mortality at 100 ug/ml after 24 hr. The format is functional.
Series [2] concerns Aphelenchoides besseyi. The experiment in a line: Nematocidal activity against Aphelenchoides besseyi assessed as mortality after 24 hr. It counts as functional.
Series [3] deals with Meloidogyne incognita. Briefly: Nematocidal activity against Meloidogyne incognita (root-knot nematode) assessed as mortality after 24 hr. It counts as functional.
The subject of series [4] is Aphelenchoides besseyi. Briefly: Nematocidal activity against Aphelenchoides besseyi assessed as mortality at 200 ug/ml after 24 hr. It counts as functional.
Series [5] in a line: Toxicity in Rattus norvegicus (rat). It counts as organism-based. The settings on record: in vivo, read-out: LC50 (the source's name).

On to `CC1=C[C@H]2OO[C@@H]1C[C@@H]2C(C)C`, for which the mortality at 100 µg/mL with Meloidogyne incognita [1] was determined as 100%. For the same compound, the 50% lethal concentration (LC50) in the series with Aphelenchoides besseyi [2] is 69 µg/mL (≈ 410 µM); in the series on Meloidogyne incognita [3], 25 µg/mL (≈ 149 µM).

For `CC1=C[C@@H]2OO[C@H]1C[C@@H]2C(C)C`, the mortality at 100 µg/mL with Meloidogyne incognita [1] came to 100%. In addition, the figures for the 50% lethal concentration (LC50) with Aphelenchoides besseyi [2] and in the series on Meloidogyne incognita [3] were 110 µg/mL (≈ 654 µM) and 51 µg/mL (≈ 303 µM), respectively.

In the case of `C=C(C)[C@H]1C[C@H]2OO[C@@H]1C=C2C`, the mortality at 100 µg/mL with Meloidogyne incognita [1] is 100%. The values for the LC50 with Aphelenchoides besseyi [2] and with Meloidogyne incognita [3] were 21 µg/mL (≈ 126 µM) and 12 µg/mL (≈ 72.2 µM), respectively.

Regarding `C=C(C)[C@H]1C[C@@H]2OO[C@H]1C=C2C`, the mortality at 100 µg/mL in the series with Meloidogyne incognita [1] turned out to be 100%. Further, the LC50 was determined as 50 µg/mL (≈ 301 µM) in the series on Aphelenchoides besseyi [2] and 23 µg/mL (≈ 138 µM) in the series with Meloidogyne incognita [3].

As to `C=C(C)[C@H]1C[C@H]2OO[C@@H]1C(OC(C)=O)=C2C`, the mortality at 200 µg/mL in the series on Aphelenchoides besseyi [4] was below 50%. In the series with Meloidogyne incognita [1], the mortality at 100 µg/mL was 100%. In addition, the LC50 came to 302 µg/mL (≈ 1350 µM) in the series with Aphelenchoides besseyi [2] and 50 µg/mL (≈ 223 µM) in the series on Meloidogyne incognita [3].

For `C=C(C)[C@H]1C[C@@H]2OO[C@H]1C(OC(C)=O)=C2C`, the mortality at 100 µg/mL in the series on Meloidogyne incognita [1] was found to be 100%. Besides, the 50% lethal concentration (LC50) with Aphelenchoides besseyi [2] was 306 µg/mL (≈ 1360 µM); in the series on Meloidogyne incognita [3] it was 51 µg/mL (≈ 227 µM).

Regarding `CC(C)C12C=CC(C(=O)O)(CC1)OO2` (stereo not drawn), in the series with Aphelenchoides besseyi [4], the mortality at 200 µg/mL turned out to be 100%. Besides, in the series with Meloidogyne incognita [1], the mortality at 100 µg/mL turned out to be 100%. Moreover, the 50% lethal concentration (LC50) in the series with Aphelenchoides besseyi [2] stood at 4 µg/mL (≈ 20.2 µM); in the series on Meloidogyne incognita [3] it was 2 µg/mL (≈ 10.1 µM).

As to `CC(C)C12C=CC(CO)(CC1)OO2` (stereo not drawn), in the series with Aphelenchoides besseyi [4], the mortality at 200 µg/mL is below 50%. In addition, in the series with Meloidogyne incognita [1], the mortality at 100 µg/mL was determined as 100%. Also, the 50% lethal concentration (LC50) turned out to be 402 µg/mL (≈ 2180 µM) with Aphelenchoides besseyi [2] and 55 µg/mL (≈ 299 µM) in the series with Meloidogyne incognita [3].

Turning to `COC(=O)C12C=CC(C(C)C)(CC1)OO2` (stereo not drawn), in the series on Aphelenchoides besseyi [4], the mortality at 200 µg/mL is 100%. Also, in the series on Meloidogyne incognita [1], the mortality at 100 µg/mL was found to be 100%. Besides, the median lethal concentration (LC50) in the series on Aphelenchoides besseyi [2] and in the series with Meloidogyne incognita [3] was 2 µg/mL (≈ 9.42 µM) throughout.

As to `CC(C)C12C=CC(C)(CC1)OO2` (stereo not drawn) [ASCARIDOLE], the mortality at 200 µg/mL in the series with Aphelenchoides besseyi [4] was below 50%. In addition, the mortality at 100 µg/mL in the series on Meloidogyne incognita [1] was found to be 100%. Also, the values for the LC50 with Aphelenchoides besseyi [2] and in the series on Meloidogyne incognita [3] were 365 µg/mL (≈ 2170 µM) and 52 µg/mL (≈ 309 µM), respectively.

For the compound `CNC(=O)O/N=C(\SC)C(=O)N(C)C` [OXAMYL], in series [5], the LD50 was determined as 3.1 mg/kg. The 50% lethal concentration (LC50) in the series with Aphelenchoides besseyi [2] was determined as 0.1 µg/mL (≈ 0.456 µM); with Meloidogyne incognita [3], 0.07 µg/mL (≈ 0.319 µM).

As a reminder, the mortality is the share of the test organisms that died. As a reminder, the LC50 is the concentration lethal to half of the exposed cells or organisms.
